# Measurements published in US11236078B2, “Heterocyclic inhibitors of the sodium channel” (priority 2014, dated 2022).
# How the values were obtained:
# Format in all cases: cell-based
# rat Nav1.2 (rNav1.2) [1] = biological target: T1, rat Nav1.2 (rNav1.2) (Rattus norvegicus, UniProt P04775); assay: rNav1.2 slow inactivation block, manual patchclamp; details: HEK 293F cells stably expressing rNav1.2
# T1 construct: expressed in transfected cells
# Description: (§1) The generation of HEK 293F cell lines stably expressing human Nav1.7 (h Nav1.7), human Nav1.5 (hNav1.5) and rat Nav1.2 (r Nav1.2) was achieved by subcloning SCN9A, SCN5A, and SCN2A genes into inducible expression vectors followed by transfection into target cells using standard techniques. In the case of h Nav1.7, an expression vector encoding the human Navβ1 auxiliary subunit gene, SCN1B, was co-transfected with the expression vector bearing the SCN9A gene. Clones were selected using appropriate selection agents (0.3 mg/mL Zeocin and 0.8 mg/mL Geneticin) and maintained in Dulbecco's Modified Eagle medium, 10% fetal bovine serum, 1% non-essential amino acids to ˜80% confluence at 37° C. in a humidified incubator with 95% atmosphere and 5% CO2.
# (§2) On the day of each experiment, cells that were grown to 80% confluence in a T75 flask were harvested for use on PatchXpress (Molecular Devices, CA, USA). Following a recovery period at 37° C. in a humidified incubator with 95% atmosphere and 5% CO2 in Dulbecco's Modified Eagle Medium, the media was replaced with an external recording solution containing (in mM): 90 TEACl, 50 NaCl, 1.8 CaCl2, 1 MgCl2, 10 HEPES, 10 glucose, adjusted to pH 7.4 with TEAOH and 300 mOsm with sucrose. The internal recording solution contained (in mM): 129 CsF, 2 MgCl2, 11 EGTA, 10 HEPES, 6 NaCl, 3 Na2ATP adjusted to pH 7.2 with CsOH and 280 mOsm with sucrose. The automated liquid handling facility of PatchXpress dispensed cells and added compound. Modulation of Nav1.7 channels by compounds was assessed by promoting the channels into the inactivated state using a conditioning voltage pulse of variable amplitude, followed by a brief hyperpolarizing pulse with a subsequent depolarized voltage step to measure the current amplitude in the presence and absence of compound.
# (§3) In some cases, the potency of compounds was measured using either the Patchliner automated patch clamp platform (Nanion) or manual patch clamp techniques. Both approaches allowed the compounds to be characterized based upon the ability of a compound to modulate use- and/or state-dependence across human Nav1.7 (hNav1.7), human Nav1.5 (hNav1.5) and rat Nav1.2 (rNav1.2). The potency data is tabulated in Table 2 and is represented by six data fields. Three of the six fields represent potency data measured with the Patchliner automated platform under varying use- and state-dependent electrophysiology protocols similar to the PatchXpress protocols detailed above. For example, the second data column describes the potency of compounds in their ability to block 50% of Nav1.7 channels when the channel is repetitively activated by depolarizing voltage potentials to induce slow inactivation in approximately 50% of channels (Table 2: h Nav1.7: IC50 Slow Inactivation Block, Automated Patchclamp). The next three data fields describe the data generated from manual patchclamp electrophysiology measurements using similar methods to those employed for automated patchclamp studies.
# human Nav1.7 (hNav1.7) [2] = biological target: T2, human Nav1.7 (hNav1.7) (Homo sapiens, UniProt Q15858); assay: hNav1.7 slow inactivation block, manual patchclamp; details: HEK 293F cells stably expressing hNav1.7, slow inactivation induced in approximately 50% of channels
# T2 construct: expressed in transfected cells
# Description: as §1, §2, §3
# human Nav1.7 (hNav1.7) [3] = biological target: T2, human Nav1.7 (hNav1.7); assay: hNav1.7 slow inactivation block, automated patchclamp; details: HEK 293F cells stably expressing hNav1.7, slow inactivation induced in approximately 50% of channels
# Description: as §1, §2, §3
# rat Nav1.2 (rNav1.2) [4] = biological target: T1, rat Nav1.2 (rNav1.2); assay: rNav1.2 slow inactivation block, automated patchclamp; details: HEK 293F cells stably expressing rNav1.2
# Description: as §1, §2, §3
# T2 sequence (Q15858 whole entry): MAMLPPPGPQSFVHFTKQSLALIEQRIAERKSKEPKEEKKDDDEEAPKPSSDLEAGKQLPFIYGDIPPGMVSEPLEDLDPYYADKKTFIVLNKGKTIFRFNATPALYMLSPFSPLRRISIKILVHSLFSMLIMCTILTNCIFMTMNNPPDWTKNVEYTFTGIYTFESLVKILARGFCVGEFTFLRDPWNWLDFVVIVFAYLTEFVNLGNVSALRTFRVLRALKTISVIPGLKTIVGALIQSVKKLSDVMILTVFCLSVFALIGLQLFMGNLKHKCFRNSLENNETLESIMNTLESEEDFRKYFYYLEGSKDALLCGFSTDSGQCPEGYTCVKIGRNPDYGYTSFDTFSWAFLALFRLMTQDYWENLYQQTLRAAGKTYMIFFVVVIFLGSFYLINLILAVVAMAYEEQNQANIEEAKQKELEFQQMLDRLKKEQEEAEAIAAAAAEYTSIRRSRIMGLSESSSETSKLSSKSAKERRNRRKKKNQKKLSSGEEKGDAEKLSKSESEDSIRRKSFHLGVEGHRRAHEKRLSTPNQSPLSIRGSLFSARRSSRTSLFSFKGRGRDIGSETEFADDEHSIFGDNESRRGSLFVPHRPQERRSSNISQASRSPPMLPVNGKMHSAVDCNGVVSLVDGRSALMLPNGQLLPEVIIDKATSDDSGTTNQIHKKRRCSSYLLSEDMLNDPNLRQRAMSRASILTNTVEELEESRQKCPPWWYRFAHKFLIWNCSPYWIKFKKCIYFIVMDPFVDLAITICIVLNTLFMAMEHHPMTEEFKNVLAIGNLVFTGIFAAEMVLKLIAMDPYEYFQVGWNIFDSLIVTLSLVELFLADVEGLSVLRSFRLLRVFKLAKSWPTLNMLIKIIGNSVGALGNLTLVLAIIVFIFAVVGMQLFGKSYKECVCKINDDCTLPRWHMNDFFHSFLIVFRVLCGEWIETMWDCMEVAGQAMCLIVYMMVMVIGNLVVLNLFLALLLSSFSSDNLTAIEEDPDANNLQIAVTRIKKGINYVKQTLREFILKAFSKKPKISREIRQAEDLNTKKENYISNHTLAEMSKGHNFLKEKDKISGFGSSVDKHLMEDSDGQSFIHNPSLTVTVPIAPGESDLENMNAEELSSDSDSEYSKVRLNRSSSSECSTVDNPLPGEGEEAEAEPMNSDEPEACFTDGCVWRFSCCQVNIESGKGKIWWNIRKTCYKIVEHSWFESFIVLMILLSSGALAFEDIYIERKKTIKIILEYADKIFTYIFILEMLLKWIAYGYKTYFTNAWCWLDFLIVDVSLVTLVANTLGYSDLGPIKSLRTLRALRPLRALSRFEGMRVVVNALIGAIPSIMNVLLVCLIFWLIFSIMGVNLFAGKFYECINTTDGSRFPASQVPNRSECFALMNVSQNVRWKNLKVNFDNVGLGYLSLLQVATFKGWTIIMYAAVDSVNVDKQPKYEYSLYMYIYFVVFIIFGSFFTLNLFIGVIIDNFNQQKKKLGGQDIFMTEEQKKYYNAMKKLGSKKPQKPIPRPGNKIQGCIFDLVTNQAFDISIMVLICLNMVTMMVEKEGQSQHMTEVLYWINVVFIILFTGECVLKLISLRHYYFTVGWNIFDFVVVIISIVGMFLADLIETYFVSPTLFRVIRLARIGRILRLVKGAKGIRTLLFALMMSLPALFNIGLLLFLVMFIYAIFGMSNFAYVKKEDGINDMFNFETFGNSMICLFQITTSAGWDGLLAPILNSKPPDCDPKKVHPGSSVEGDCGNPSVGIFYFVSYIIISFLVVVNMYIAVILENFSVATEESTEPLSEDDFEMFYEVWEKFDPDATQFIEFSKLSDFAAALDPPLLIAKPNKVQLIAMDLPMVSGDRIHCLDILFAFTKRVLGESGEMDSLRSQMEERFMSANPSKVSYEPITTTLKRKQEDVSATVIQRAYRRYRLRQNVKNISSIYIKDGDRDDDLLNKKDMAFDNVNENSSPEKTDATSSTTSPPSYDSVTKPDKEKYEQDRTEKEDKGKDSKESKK
# T2 sequence (Q07699 19-218 partner): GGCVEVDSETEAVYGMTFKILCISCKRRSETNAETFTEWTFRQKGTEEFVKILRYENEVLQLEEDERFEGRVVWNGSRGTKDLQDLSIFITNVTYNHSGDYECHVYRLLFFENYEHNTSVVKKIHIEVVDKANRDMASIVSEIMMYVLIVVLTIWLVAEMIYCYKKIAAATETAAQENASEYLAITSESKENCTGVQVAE
# T1 sequence (P04775 whole entry): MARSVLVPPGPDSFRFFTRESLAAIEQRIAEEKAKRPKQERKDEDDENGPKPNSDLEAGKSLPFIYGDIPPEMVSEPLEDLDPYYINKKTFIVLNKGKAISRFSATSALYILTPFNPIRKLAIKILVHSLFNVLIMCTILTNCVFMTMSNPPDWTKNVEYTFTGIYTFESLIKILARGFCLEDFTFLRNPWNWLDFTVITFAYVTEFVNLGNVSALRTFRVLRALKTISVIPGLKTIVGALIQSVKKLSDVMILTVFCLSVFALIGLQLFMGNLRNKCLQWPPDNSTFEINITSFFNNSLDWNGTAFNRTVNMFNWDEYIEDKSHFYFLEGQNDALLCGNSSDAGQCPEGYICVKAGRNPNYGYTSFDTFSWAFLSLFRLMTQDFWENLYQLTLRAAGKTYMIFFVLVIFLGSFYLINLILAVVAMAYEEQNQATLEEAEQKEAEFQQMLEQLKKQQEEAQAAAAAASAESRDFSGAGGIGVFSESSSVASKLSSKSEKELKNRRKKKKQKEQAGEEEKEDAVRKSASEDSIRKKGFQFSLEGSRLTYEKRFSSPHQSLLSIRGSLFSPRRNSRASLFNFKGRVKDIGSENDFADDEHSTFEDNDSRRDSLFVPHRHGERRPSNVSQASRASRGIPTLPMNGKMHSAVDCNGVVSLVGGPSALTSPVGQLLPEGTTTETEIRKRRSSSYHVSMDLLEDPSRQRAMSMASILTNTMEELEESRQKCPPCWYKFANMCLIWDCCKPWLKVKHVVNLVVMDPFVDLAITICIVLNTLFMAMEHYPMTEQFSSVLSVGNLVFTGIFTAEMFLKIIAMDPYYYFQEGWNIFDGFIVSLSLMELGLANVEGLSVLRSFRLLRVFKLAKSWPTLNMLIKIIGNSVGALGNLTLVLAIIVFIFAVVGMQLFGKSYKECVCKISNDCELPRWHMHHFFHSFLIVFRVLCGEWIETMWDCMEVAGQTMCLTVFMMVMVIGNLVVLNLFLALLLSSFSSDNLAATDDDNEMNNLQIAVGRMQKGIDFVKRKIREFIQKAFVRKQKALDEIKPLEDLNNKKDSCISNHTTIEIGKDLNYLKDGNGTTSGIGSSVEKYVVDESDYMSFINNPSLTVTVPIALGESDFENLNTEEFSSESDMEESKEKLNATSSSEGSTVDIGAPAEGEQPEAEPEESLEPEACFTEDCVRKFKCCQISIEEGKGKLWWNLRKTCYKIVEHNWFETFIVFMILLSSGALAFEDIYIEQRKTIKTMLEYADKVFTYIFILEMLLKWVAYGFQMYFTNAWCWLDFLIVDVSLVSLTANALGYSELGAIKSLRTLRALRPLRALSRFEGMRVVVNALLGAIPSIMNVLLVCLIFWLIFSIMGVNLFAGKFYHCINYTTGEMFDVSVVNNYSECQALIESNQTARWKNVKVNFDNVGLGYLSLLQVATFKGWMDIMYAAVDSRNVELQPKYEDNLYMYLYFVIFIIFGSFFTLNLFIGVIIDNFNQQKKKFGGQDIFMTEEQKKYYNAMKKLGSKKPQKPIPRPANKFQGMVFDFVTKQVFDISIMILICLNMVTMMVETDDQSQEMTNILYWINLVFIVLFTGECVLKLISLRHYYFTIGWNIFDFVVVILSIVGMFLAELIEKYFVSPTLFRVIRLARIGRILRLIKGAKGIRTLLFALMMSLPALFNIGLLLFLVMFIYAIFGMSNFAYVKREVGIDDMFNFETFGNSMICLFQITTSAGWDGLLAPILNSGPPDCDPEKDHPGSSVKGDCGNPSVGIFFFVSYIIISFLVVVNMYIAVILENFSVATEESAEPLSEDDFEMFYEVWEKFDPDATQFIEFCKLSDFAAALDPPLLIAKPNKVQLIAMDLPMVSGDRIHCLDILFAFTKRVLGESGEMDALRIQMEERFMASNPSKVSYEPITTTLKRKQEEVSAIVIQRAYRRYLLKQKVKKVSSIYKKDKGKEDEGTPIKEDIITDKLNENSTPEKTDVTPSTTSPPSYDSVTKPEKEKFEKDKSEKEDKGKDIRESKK
SMILES,IC50 (rat Nav1.2 (rNav1.2) [1]) [nM],IC50 (human Nav1.7 (hNav1.7) [2]) [nM],IC50 (human Nav1.7 (hNav1.7) [3]) [nM],IC50 (rat Nav1.2 (rNav1.2) [4]) [nM]
"O=C(NCc1cc(F)c(Oc2ccccc2)cc1F)[C@@H]1CCCN1 [Compound 3, (2S)-N-[(2,5-difluoro-4-phenoxyphenyl)methyl]pyrrolidine-2-carboxamide]",1890,1340,5780,
"O=S(=O)(Nc1ncns1)c1ccc(Oc2cc(C(F)(F)F)cc(C(F)(F)F)c2)cc1 [Compound 6, 4-[3,5-bis(trifluoromethyl)phenoxy]-N-(1,2,4-thiadiazol-5-yl)benzene-1-sulfonamide]",> 10000,~39000,,
"O=S(=O)(Nc1nncs1)c1ccc(Oc2cc(C(F)(F)F)cc(C(F)(F)F)c2)cc1 [Compound 7, 4-[3,5-bis(trifluoromethyl)phenoxy]-N-(1,3,4-thiadiazol-2-yl)benzene-1-sulfonamide]",,,> 32000,
"O=S(=O)(Nc1nncs1)c1cc(F)c(Oc2cc(C(F)(F)F)cc(C(F)(F)F)c2)cc1F [Compound 8, 4-[3,5-bis(trifluoromethyl)phenoxy]-2,5-difluoro-N-(1,3,4-thiadiazol-2-yl)benzene-1-sulfonamide]",,,> 32000,
"O=S(=O)(Nc1nccs1)c1ccc(Oc2cc(C(F)(F)F)cc(C(F)(F)F)c2)cc1 [Compound 9, 4-[3,5-bis(trifluoromethyl)phenoxy]-N-(1,3-thiazol-2-yl)benzene-1-sulfonamide]",,,~29500,
"N#Cc1cc(S(=O)(=O)Nc2nncs2)ccc1Oc1cc(C(F)(F)F)cc(C(F)(F)F)c1 [Compound 10, 4-[3,5-bis(trifluoromethyl)phenoxy]-3-cyano-N-(1,3,4-thiadiazol-2-yl)benzene-1-sulfonamide]",> 10000,> 10000,> 32000,
"O=S(=O)(Nc1ncns1)c1ccc(Oc2cc(C(F)(F)F)cc(C(F)(F)F)c2)c(F)c1 [Compound 11, 4-[3,5-bis(trifluoromethyl)phenoxy]-3-fluoro-N-(1,2,4-thiadiazol-5-yl)benzene-1-sulfonamide]",> 10000,> 3200,> 32000,
"O=C(Nc1ncns1)c1cc(F)c(Oc2cc(C(F)(F)F)cc(C(F)(F)F)c2)cc1F [Compound 12, 4-[3,5-bis(trifluoromethyl)phenoxy]-2,5-difluoro-N-(1,2,4-thiadiazol-5-yl)benzamide]",> 3200,~5590,> 32000,
"CS(=O)(=O)NC(=O)c1cc(F)c(Oc2cc(C(F)(F)F)cc(C(F)(F)F)c2)cc1F [Compound 13, 4-[3,5-bis(trifluoromethyl)phenoxy]-2,5-difluoro-N-methanesulfonylbenzamide]",> 10000,~10300,19200,
"N#Cc1cc(S(=O)(=O)Nc2ncns2)ccc1Oc1cc(C(F)(F)F)cc(C(F)(F)F)c1 [Compound 14, 4-[3,5-bis(trifluoromethyl)phenoxy]-3-cyano-N-(1,2,4-thiadiazol-5-yl)benzene-1-sulfonamide]",> 10000,4940,~49000,> 32000
"O=C(Nc1nncs1)c1cc(F)c(Oc2cc(C(F)(F)F)cc(C(F)(F)F)c2)cc1F [Compound 15, 4-[3,5-bis(trifluoromethyl)phenoxy]-2,5-difluoro-N-(1,3,4-thiadiazol-2-yl)benzamide]",4320,4960,> 32000,
"O=S(=O)(Nc1ncns1)c1ccc(Oc2cc(C(F)(F)F)cc(C(F)(F)F)c2)c(Cl)c1 [Compound 16, 4-[3,5-bis(trifluoromethyl)phenoxy]-3-chloro-N-(1,2,4-thiadiazol-5-yl)benzene-1-sulfonamide]",> 10000,,21100,> 32000
"O=S(=O)(Nc1ccncn1)c1cc(F)c(Oc2cc(C(F)(F)F)cc(C(F)(F)F)c2)cc1F [Compound 18, 4-[3,5-bis(trifluoromethyl)phenoxy]-2,5-difluoro-N-(pyrimidin-4-yl)benzene-1-sulfonamide]",,~9760,> 32000,> 32000
"O=C(NCc1cc(F)c(Oc2cc(C(F)(F)F)cc(C(F)(F)F)c2)cc1F)c1nncs1 [Compound 19, N-({4-[3,5-bis(trifluoromethyl)phenoxy]-2,5-difluorophenyl}methyl)-1,3,4-thiadiazole-2-carboxamide]",~1250,1380,~10200,5660
"CS(=O)(=O)NCc1cc(F)c(Oc2cc(C(F)(F)F)cc(C(F)(F)F)c2)cc1F [Compound 20, N-({4-[3,5-bis(trifluoromethyl)phenoxy]-2,5-difluorophenyl}methyl)methane-sulfonamide]",~1320,~1260,5780,4260
"O=C(Cc1cc(F)c(Oc2cc(C(F)(F)F)cc(C(F)(F)F)c2)cc1F)Nc1ncns1 [Compound 22, 2-{4-[3,5-bis(trifluoromethyl)phenoxy]-2,5-difluorophenyl}-N-(1,2,4-thiadiazol-5-yl)acetamide]",,> 3200,> 32000,> 32000
"O=C(O)c1cc(Oc2cc(F)c(S(=O)(=O)Nc3ncns3)cc2F)cc(C(F)(F)F)c1 [Compound 23, 3-{2,5-difluoro-4-[(1,2,4-thiadiazol-5-yl)sulfamoyl]phenoxy}-5-(trifluoromethyl)benzoic]",> 10000,> 10000,> 32000,> 32000
"CNC(=O)c1cc(Oc2cc(F)c(S(=O)(=O)Nc3ncns3)cc2F)cc(C(F)(F)F)c1 [Compound 25, 3-{2,5-difluoro-4-[(1,2,4-thiadiazol-5-yl)sulfamoyl]phenoxy}-N-methyl-5-(trifluoromethyl)benzamide]",,~19200,~41800,> 32000
"CCNC(=O)c1cc(Oc2cc(F)c(S(=O)(=O)Nc3ncns3)cc2F)cc(C(F)(F)F)c1 [Compound 35, 3-{2,5-difluoro-4-[(1,2,4-thiadiazol-5-yl)sulfamoyl]phenoxy}-N-ethyl-5 (trifluoromethyl)benzamide]",,~16200,> 32000,
"O=C(c1cc(Oc2cc(F)c(S(=O)(=O)Nc3ncns3)cc2F)cc(C(F)(F)F)c1)N1CCCC1 [Compound 39, 2,5-difluoro-4-{3-[(pyrrolidin-1-yl)carbonyl]-5-(trifluoromethyl)phenoxy}-N-(1,2,4-thiadiazol-5-yl)benzene-1-sulfonamide]",,~6930,~21700,
"COCc1nsc(NS(=O)(=O)c2cc(F)c(Oc3cc(OC)cc(C(F)(F)F)c3)cc2F)n1 [Compound 44, 2,5-difluoro-4-[3-methoxy-5-(trifluoromethyl)phenoxy]-N-[3-(methoxymethyl)-1,2,4-thiadiazol-5-yl]benzene-1-sulfonamide]",,> 10000,> 32000,
"O=C(NCc1cc(-c2cc(C(F)(F)F)cc(C(F)(F)F)c2)cc(C(F)(F)F)c1)[C@@H]1C[C@H](F)CN1 [Compound 54, (2S,4S)-4-fluoro-N-((3′,5,5′-tris(trifluoromethyl)-[1,1′-biphenyl]-3-yl)methyl)pyrrolidine-2-carboxamide]",744,741,5130,
"O=C(NCc1cccc(-c2cc(C(F)(F)F)cc(C(F)(F)F)c2)c1)C1CC[C@H](O)C1 (stereo partly drawn) [Example 63, (3S)-N-({3-[3,5-bis(trifluoromethyl)phenyl]phenyl}methyl)-3-hydroxycyclopentane-1-carboxamide]",2370,2680,,
"O=C(NCc1cccc(-c2cc(C(F)(F)F)cc(C(F)(F)F)c2)c1)C1CC[C@@H](O)C1 (stereo partly drawn) [Example 64, (3R)-N-({3-[3,5-bis(trifluoromethyl)phenyl]phenyl}methyl)-3-hydroxycyclopentane-1-carboxamide]",961,1570,,
"O=C(NCc1cccc(-c2cc(C(F)(F)F)cc(C(F)(F)F)c2)c1)C1CC[C@@H](F)C1 (stereo partly drawn) [Example 65, (3R)-N-({3-[3,5-bis(trifluoromethyl)phenyl]phenyl}methyl)-3-fluorocyclopentane-1-carboxamide]",351,477,,
